From ChEMBL document CHEMBL2029272, “7-Azabicyclo[2.2.1]heptane as a scaffold for the development of selective sigma-2 (σ2) receptor ligands” (Bioorg Med Chem Lett, 2012)

Legend:
[1] = molecular target: Sigma non-opioid intracellular receptor 1 (Rattus norvegicus, UniProt Q9R0C9); test: Displacement of [3H](+)-pentazocine from sigma1 receptor in rat brain homogenate; assay type: tissue-based
[2] = Displacement of [3H]DTG from sigma2 receptor in […]; assay type: cell-based; conditions: pc-12
[3] = molecular target: Muscarinic acetylcholine receptor M2 (Homo sapiens, UniProt P08172); test: Inhibition of M2 muscarinic receptor
[4] = molecular target: T1, Muscarinic acetylcholine receptor M5 (Homo sapiens, UniProt P08912); test: Inhibition of M5 muscarinic receptor
T1 sequence (P08912 whole entry): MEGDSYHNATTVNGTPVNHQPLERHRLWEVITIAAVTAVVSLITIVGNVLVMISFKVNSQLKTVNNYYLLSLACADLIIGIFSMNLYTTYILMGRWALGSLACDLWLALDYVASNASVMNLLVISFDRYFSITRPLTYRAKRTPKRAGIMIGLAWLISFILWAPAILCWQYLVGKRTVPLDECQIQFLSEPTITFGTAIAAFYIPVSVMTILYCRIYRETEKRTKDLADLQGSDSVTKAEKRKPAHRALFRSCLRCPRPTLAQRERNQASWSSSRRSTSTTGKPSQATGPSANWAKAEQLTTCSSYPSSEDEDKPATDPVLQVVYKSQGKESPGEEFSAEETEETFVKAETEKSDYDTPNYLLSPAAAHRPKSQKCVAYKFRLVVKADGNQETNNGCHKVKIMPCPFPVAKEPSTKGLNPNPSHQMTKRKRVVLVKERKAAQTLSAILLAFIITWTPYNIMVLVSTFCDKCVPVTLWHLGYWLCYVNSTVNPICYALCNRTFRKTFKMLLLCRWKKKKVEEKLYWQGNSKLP

[5] = molecular target: T2, Alpha-1D adrenergic receptor (Homo sapiens) (UniProt P25100); test: Inhibition of alpha1D adrenergic receptor at 10 uM
T2 sequence (whole entry): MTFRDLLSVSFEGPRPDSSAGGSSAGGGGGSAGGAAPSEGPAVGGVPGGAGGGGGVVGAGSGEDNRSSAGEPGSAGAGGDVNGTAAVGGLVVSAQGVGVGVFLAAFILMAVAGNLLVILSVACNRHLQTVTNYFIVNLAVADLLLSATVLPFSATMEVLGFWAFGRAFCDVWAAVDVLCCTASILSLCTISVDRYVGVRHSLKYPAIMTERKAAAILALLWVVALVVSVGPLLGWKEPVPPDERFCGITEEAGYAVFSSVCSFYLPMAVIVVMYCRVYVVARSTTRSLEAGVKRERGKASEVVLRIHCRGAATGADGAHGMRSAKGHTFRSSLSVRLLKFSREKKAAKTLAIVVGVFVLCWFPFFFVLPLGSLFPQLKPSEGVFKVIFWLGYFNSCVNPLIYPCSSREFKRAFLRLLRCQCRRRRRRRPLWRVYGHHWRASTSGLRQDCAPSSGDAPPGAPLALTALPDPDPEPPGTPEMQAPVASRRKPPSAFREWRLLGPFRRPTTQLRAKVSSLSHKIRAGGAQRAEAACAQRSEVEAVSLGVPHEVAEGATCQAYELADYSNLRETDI

[6] = molecular target: Beta-1 adrenergic receptor (Homo sapiens) (UniProt P08588); test: Inhibition of beta1 adrenergic receptor at 10 uM
[7] = molecular target: Beta-2 adrenergic receptor (Homo sapiens) (UniProt P07550); test: Inhibition of beta2 adrenergic receptor at 10 uM
[8] = molecular target: Beta-3 adrenergic receptor (Homo sapiens) (UniProt P13945); test: Inhibition of beta3 adrenergic receptor at 10 uM
D(3) dopamine receptor = D(3) dopamine receptor (Homo sapiens, UniProt P35462); test: Inhibition of D3 dopamine receptor at 10 uM
D(1B) dopamine receptor = D(1B) dopamine receptor (Homo sapiens, UniProt P21918); test: Inhibition of D5 dopamine receptor at 10 uM
[9] = molecular target: Histamine H4 receptor (Homo sapiens) (UniProt Q9H3N8); test: Inhibition of H4 receptor at 10 uM
[10] = molecular target: T3, 5-hydroxytryptamine receptor 1A (Homo sapiens) (UniProt P08908); test: Inhibition of 5-HT1A receptor at 10 uM
T3 sequence (whole entry): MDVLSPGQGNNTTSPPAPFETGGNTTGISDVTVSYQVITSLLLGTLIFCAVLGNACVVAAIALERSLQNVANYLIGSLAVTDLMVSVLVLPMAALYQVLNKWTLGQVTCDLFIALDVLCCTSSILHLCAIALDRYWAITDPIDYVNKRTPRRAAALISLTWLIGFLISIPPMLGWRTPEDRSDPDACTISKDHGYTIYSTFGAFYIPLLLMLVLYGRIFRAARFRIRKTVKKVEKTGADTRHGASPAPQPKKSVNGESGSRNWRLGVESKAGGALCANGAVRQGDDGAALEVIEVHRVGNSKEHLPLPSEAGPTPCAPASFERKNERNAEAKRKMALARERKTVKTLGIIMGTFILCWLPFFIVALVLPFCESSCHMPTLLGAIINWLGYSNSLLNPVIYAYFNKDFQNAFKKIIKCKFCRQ

[11] = molecular target: 5-hydroxytryptamine receptor 1E (Homo sapiens) (UniProt P28566); test: Inhibition of 5-HT1E receptor at 10 uM
[12] = molecular target: 5-hydroxytryptamine receptor 2B (Homo sapiens) (UniProt P41595); test: Inhibition of 5-HT2B receptor at 10 uM
[13] = molecular target: T4, 5-hydroxytryptamine receptor 3A (Homo sapiens) (UniProt P46098); test: Inhibition of 5-HT3 receptor at 10 uM
T4 sequence (whole entry): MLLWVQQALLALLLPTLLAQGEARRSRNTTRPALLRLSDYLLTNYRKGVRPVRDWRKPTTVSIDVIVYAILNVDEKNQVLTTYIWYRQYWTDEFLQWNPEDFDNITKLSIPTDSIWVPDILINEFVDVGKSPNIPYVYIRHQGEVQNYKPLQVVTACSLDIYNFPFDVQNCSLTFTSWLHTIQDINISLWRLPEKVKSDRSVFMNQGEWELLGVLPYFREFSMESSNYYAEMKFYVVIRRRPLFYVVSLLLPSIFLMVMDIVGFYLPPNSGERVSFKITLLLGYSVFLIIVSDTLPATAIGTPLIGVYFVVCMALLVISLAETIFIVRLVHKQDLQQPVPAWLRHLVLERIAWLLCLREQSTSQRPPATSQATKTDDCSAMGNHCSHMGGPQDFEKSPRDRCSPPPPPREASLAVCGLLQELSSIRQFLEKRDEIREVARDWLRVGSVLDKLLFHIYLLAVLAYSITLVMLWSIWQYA

[14] = molecular target: 5-hydroxytryptamine receptor 7 (Homo sapiens) (UniProt P34969); test: Inhibition of 5-HT7 receptor at 10 uM
[15] = molecular target: Muscarinic acetylcholine receptor M3 (Homo sapiens, UniProt P20309); test: Inhibition of M3 muscarinic receptor at 10 uM
[16] = molecular target: Sodium-dependent noradrenaline transporter (Homo sapiens) (UniProt P23975); test: Inhibition of NET at 10 uM
[17] = molecular target: Delta-type opioid receptor (Homo sapiens) (UniProt P41143); test: Inhibition of delta opioid receptor at 10 uM
[18] = molecular target: Mu-type opioid receptor (Homo sapiens) (UniProt P35372); test: Inhibition of mu opioid receptor at 10 uM
Sequence of Mu-type opioid receptor (Homo sapiens) (P35372 whole entry): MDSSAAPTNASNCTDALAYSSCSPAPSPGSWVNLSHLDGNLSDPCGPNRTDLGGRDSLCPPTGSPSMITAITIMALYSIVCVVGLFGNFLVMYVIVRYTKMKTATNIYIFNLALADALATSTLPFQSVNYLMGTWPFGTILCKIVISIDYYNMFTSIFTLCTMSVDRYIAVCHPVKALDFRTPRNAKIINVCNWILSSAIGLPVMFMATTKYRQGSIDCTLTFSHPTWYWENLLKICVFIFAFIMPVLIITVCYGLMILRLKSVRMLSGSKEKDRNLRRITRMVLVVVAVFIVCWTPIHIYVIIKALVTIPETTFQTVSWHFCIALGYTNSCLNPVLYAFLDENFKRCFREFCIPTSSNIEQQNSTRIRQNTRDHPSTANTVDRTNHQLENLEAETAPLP

Sequence of Delta-type opioid receptor (Homo sapiens) (P41143 whole entry): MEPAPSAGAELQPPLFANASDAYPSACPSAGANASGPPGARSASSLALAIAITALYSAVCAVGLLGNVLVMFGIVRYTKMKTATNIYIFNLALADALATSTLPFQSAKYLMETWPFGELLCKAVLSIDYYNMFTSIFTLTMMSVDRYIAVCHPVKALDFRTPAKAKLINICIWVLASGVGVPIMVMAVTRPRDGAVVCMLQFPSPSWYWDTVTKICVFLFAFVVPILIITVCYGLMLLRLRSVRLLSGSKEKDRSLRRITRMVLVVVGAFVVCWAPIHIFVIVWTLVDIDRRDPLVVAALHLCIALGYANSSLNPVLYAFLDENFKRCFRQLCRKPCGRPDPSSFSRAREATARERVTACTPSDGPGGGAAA
Sequence of Beta-2 adrenergic receptor (Homo sapiens) (P07550 whole entry, looked up): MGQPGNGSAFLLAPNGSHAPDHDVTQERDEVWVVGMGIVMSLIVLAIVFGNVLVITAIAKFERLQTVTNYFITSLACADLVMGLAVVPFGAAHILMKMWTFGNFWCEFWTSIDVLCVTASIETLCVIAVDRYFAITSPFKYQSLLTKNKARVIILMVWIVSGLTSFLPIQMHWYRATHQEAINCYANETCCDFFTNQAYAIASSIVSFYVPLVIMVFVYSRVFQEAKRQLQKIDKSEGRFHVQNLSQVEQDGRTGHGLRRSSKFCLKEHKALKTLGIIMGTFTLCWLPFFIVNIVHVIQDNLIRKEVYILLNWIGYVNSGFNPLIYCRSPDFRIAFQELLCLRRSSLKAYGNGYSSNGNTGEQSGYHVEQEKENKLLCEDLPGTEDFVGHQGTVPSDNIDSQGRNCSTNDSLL
Sequence of 5-hydroxytryptamine receptor 7 (Homo sapiens) (P34969 whole entry): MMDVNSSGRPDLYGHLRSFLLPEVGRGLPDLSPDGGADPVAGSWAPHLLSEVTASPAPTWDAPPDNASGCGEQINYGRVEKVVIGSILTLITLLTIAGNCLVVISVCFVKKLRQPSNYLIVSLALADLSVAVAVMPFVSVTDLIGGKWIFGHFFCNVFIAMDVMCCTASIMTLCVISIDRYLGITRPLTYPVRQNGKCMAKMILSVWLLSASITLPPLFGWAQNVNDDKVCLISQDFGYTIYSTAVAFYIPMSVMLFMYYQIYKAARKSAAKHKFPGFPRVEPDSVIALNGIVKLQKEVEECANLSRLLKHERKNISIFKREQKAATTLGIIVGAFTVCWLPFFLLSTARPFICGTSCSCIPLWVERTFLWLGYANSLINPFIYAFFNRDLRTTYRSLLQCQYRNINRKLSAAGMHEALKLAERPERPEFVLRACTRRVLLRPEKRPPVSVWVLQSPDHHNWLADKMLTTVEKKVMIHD
Sequence of Sigma non-opioid intracellular receptor 1 (Q9R0C9 whole entry): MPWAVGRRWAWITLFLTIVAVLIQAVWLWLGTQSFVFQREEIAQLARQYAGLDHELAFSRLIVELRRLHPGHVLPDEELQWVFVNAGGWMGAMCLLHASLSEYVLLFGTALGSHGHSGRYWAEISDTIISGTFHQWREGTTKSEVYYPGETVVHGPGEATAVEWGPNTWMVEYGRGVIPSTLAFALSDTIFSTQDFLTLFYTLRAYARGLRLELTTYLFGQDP
Sequence of Beta-1 adrenergic receptor (Homo sapiens) (P08588 whole entry, looked up): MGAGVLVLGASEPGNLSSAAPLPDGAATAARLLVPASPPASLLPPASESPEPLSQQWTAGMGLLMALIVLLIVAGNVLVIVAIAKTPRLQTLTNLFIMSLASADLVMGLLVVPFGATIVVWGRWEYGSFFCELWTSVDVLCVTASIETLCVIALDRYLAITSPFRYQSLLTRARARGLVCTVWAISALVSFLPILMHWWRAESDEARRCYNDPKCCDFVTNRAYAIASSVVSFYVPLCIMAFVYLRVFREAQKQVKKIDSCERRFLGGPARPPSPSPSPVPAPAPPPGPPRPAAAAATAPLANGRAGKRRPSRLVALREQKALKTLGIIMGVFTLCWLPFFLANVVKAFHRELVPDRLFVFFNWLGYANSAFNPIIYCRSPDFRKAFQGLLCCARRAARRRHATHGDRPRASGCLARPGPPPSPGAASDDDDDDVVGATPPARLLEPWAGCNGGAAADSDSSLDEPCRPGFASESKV
Sequence of Beta-3 adrenergic receptor (Homo sapiens) (P13945 whole entry, looked up): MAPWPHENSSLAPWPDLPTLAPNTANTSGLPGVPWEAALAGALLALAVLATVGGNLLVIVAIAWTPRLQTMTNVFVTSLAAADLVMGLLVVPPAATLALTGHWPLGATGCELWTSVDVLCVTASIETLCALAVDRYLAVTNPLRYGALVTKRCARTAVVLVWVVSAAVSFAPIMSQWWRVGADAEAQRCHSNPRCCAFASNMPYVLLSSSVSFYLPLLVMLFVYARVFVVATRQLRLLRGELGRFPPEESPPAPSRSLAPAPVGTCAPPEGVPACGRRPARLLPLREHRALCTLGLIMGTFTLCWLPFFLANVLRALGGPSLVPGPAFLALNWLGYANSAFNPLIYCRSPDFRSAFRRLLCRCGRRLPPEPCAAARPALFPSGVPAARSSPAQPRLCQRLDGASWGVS
Sequence of Sodium-dependent noradrenaline transporter (Homo sapiens) (P23975 whole entry): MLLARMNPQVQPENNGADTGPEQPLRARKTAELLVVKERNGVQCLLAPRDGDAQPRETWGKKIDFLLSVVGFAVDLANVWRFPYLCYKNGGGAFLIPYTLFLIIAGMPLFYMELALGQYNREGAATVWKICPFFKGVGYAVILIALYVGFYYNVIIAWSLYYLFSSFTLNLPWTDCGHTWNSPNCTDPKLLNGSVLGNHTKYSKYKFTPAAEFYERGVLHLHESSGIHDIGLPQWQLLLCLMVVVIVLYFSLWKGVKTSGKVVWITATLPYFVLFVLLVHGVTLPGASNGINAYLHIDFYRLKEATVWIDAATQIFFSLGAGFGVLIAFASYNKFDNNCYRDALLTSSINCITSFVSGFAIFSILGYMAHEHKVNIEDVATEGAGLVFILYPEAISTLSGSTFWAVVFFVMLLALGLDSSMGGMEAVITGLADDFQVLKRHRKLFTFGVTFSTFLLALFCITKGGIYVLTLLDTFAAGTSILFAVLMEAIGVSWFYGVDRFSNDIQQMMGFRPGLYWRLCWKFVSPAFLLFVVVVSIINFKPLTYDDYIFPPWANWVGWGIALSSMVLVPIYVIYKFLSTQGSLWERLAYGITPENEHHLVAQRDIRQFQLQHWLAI
Sequence of 5-hydroxytryptamine receptor 2B (Homo sapiens) (P41595 whole entry): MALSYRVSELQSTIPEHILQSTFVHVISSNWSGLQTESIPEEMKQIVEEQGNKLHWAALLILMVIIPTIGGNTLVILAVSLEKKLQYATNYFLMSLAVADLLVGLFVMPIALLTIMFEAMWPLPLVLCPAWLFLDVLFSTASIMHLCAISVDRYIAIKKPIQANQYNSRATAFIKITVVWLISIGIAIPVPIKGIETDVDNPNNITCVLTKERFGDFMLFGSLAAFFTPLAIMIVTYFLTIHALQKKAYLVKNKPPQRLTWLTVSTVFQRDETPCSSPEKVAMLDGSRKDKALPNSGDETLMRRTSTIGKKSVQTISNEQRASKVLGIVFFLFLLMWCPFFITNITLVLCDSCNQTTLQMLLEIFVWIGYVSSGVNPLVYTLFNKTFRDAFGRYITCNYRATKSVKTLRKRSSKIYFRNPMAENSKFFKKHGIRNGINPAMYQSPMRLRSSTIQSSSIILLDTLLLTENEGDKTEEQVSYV
Sequence of Histamine H4 receptor (Homo sapiens) (Q9H3N8 whole entry): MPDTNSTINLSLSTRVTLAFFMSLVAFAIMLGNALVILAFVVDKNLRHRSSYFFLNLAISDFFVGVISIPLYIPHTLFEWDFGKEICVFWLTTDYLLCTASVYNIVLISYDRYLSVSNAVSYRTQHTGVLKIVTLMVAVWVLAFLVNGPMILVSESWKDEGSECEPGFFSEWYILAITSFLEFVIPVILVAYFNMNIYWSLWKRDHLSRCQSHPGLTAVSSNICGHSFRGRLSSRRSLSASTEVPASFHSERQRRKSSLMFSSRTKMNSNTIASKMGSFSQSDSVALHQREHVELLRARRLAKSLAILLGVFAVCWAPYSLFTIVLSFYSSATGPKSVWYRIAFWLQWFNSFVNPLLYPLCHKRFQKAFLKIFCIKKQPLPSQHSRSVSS
Sequence of 5-hydroxytryptamine receptor 1E (Homo sapiens) (P28566 whole entry): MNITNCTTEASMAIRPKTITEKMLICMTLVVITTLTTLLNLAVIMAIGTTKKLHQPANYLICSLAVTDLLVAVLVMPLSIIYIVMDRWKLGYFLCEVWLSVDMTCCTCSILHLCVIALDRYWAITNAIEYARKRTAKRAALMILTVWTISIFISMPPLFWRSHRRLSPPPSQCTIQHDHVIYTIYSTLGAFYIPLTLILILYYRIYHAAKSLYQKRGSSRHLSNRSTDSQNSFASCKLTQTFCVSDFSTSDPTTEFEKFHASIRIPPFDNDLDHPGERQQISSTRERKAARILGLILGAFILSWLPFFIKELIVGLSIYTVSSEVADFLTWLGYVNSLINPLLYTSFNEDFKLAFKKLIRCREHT

Row | Compound | Ki [1] | Ki [2] | Ki [3] | Ki [4] | inhibition [5] | inhibition [6] | inhibition [7] | inhibition [8] | inhibition (D(3) dopamine receptor) | inhibition (D(1B) dopamine receptor) | inhibition [9] | inhibition [10] | inhibition [11] | inhibition [12] | inhibition [13] | inhibition [14] | inhibition [15] | inhibition [16] | inhibition [17] | inhibition [18]
1 | C1CCC(CN2C3CCC2CC3)CC1 | 22 nM | 18 nM | 4740 nM | 2670 nM | < 50% | < 50% | < 50% | < 50% | < 50% | < 50% | < 50% | < 50% | < 50% | < 50% | < 50% | < 50% | < 50% | < 50% | < 50% | < 50%
2 | C1CCC(CN2CCCC2)CC1 | 51 nM | 410 nM | – | 2690 nM | < 50% | < 50% | < 50% | < 50% | < 50% | – | < 50% | < 50% | < 50% | < 50% | < 50% | < 50% | < 50% | < 50% | < 50% | < 50%
3 | C1CC2CCC1N2CC12C3C4C5C3C1C5C42 (stereo unspecified) | 7 nM | 18 nM | 696 nM | 802 nM | < 50% | < 50% | < 50% | < 50% | – | < 50% | < 50% | < 50% | < 50% | < 50% | < 50% | < 50% | – | < 50% | < 50% | < 50%
